Assay results as given in PMC8382989 (Biochemistry, 2013).
Changes are numbered by the printed parent chain. In names and notes the source's numbering stands. Read-outs that look alike come from different tables or passages of the source.

Experiments:
[1] = target: T1, human RNR subunit α (H-α) (Homo sapiens, UniProt P23921); experiment: CDP reductase activity titration with dATP; format: biochemical
T1 sequence (P23921 1-792): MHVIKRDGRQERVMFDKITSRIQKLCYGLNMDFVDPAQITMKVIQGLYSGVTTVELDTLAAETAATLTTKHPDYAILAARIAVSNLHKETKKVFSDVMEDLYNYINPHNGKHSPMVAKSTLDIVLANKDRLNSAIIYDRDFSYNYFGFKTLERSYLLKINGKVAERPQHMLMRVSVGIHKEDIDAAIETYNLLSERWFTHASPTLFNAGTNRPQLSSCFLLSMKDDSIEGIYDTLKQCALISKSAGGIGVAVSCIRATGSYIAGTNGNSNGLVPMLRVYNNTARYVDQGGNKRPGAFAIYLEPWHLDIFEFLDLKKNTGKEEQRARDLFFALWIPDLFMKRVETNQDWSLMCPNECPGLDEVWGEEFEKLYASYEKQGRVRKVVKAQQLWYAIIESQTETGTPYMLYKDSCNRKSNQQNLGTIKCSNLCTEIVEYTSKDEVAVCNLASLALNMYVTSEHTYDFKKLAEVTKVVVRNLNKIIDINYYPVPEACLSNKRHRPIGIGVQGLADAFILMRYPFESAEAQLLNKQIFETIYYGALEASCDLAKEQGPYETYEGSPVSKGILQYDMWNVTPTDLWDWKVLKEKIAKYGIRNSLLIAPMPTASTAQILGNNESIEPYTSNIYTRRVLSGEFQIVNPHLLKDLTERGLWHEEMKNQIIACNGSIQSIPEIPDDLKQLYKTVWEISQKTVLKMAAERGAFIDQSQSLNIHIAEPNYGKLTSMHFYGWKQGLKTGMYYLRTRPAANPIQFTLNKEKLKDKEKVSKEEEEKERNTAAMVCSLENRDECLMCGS

[2] = target: T2, human RNR subunit α, N-terminal domain alone (H-NTD) (Homo sapiens, UniProt P23921); experiment: fluorescence anisotropy titration; format: binding
T2 sequence (P23921 1-91): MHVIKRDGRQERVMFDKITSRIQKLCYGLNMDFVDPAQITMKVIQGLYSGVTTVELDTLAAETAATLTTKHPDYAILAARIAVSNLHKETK

[3] = target: E. coli RNR subunit α, catalytic body alone (E-CB) (Escherichia coli, UniProt P00452); experiment: fluorescence anisotropy titration; format: binding
E. coli RNR subunit α, catalytic body alone (E-CB), sequence (P00452 94-761): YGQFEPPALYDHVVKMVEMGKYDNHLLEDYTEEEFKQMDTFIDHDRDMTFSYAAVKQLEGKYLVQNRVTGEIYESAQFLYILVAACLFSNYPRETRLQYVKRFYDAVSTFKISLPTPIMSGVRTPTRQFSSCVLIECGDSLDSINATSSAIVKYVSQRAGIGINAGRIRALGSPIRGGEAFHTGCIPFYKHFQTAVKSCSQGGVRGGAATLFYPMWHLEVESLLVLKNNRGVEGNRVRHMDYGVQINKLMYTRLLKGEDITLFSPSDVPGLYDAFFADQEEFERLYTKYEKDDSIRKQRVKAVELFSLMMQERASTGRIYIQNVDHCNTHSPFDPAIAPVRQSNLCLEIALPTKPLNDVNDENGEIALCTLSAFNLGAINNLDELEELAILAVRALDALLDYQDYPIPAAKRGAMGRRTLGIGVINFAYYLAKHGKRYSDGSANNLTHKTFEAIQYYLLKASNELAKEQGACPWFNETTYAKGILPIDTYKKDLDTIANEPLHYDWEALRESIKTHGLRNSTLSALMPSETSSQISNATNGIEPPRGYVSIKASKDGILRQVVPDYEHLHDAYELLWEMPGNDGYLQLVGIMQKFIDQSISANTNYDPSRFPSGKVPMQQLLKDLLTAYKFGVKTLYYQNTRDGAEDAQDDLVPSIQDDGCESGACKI

SEC [4] = target: the molecule itself; experiment: SEC
SEC [5] = target: the molecule itself; experiment: SEC; remark: listed apart in the source

**Q.** With `Nc1ncnc2c1ncn2[C@H]1C[C@H](O)[C@@H](COP(=O)(O)OP(=O)(O)OP(=O)(O)O)O1` [dATP] as the molecule, how does the EC50 [1] read?
**A.** Its EC50 is 33 ± 7 µM.

**Q.** Which results are given for Texas Red-5-dATP?
**A.** Kd [2]: 153 ± 19 µM; Kd [3]: 5.3 ± 0.3 µM

B1: human ribonucleotide reductase subunit α (enzyme, UniProt P23921 1-792, looked up)
chain: T1 sequence (P23921 1-792)
**Q.** For B1, which “stoichiometry N” value (SEC [4]) is on record?
**A.** Its value is 6.

B2: human D57N-α (point mutant of human RNR subunit α) (enzyme, UniProt P23921 1-792, looked up)
chain: T1 sequence (P23921 1-792) with D57N
**Q.** For B2, which “stoichiometry N” value (SEC [4]) is on record?
**A.** Its value is 2.

B3: E. coli ribonucleotide reductase subunit β (enzyme)
chain: AYTTFSQTKNDQLKEPMFFGQPVNVARYDQQKYDIFEKLIEKQLSFFWRPEEVDVSRDRIDYQALPEHEKHIFISNLKYQTLLDSIQGRSPNVALLPLISIPELETWVETWAFSETIHSRSYTHIIRNIVNDPSVVFDDIVTNEQIQKRAEGISSYYDELIEMTSYWHLLGEGTHTVNGKTVTVSLRELKKKLYLCLMSVNALEAIRFYVSFACSFAFAERELMEGNAKIIRLIARDEALHLTGTQHMLNLLRSGADDPEMAEIAEECKQECYDLFVQAAQQEKDWADYLFRDGSMIGLNKDILCQYVEYITNIRMQAVGLDLPFQTRSNPIPWINTWLVSDNVQVAPQEVEVSSYLVGQIDSEVDTDDLSNFQL
**Q.** How did the “stoichiometry N” value (SEC [5]) turn out when B3 was run?
**A.** Its value is 2.
